The values below come from patent US12297189B2, “Crystalline forms of a 4-pyrimidinesulfamide derivative aprocitentan” (IDORSIA PHARMACEUTICALS LTD, priority 2017, dated 2025).

Data set [1] relates to subjects having essential hypertension. Conditions: phase 2 trial, cited from earlier work.
In data set [2] the test system is conscious, male hypertensive deoxycorticosterone acetate salt rats. The experiment in a line: Chronic effects of repeated oral administration in DOCA-salt rats. It is filed as in vivo, rat. As to conditions: oral 1, 10 and 100 mg/kg/day for 4 weeks. How it is done: The chronic effects of repeated administrations of doses of 1, 10 and 100 mg/kg/day of COMPOUND, in particular mean arterial blood pressure (hereafter “MAP”), and heart rate (hereafter “HR”), were evaluated in conscious, male hypertensive deoxycorticosterone acetate salt rats (hereafter “DOCA-salt rats”—see details about this model in Gavras et al., Circ. Res. (1975), 36, 300-309). In the DOCA-salt rats, hypertension is induced by the combination of unilateral nephrectomy, implantation of pellets of the mineralocorticoid analog DOCA, and provision of 1% sodium chloride in drinking water. The results of the DOCA-salt rats treated with COMPOUND were compared to those obtained for Wistar rats or for DOCA-salt rats that received only the vehicle (4% gelatin aquous solution). • a) The results obtained regarding MAP are summarised in FIG. 16 wherein each data point is presented as a 24-hour mean. 6 rats were used for each of the 5 test groups (Wistar control rats [bottom line], DOCA-salt control rats [2nd line from top at day 28] and DOCA-salt rats receiving repeated administrations of doses of 1 mg/kg/day [top line at day 28], 10 mg/kg/day [3rd line from top at day 28] and 100 mg/kg/day [4th line from top at day 28] of COMPOUND).

In data set [3] the test system is conscious, male spontaneaously hypertensive rats. The data set can be described thus: Acute effects on MAP and HR by telemetry in spontaneously hypertensive rats. The data set is classed as in vivo, rat. As to conditions: SHRs, doses 1-300 mg/kg. How it is done: The acute effects of COMPOUND on blood pressure, in particular on mean arterial blood pressure (hereafter “MAP”), and heart rate (hereafter “HR”) were evaluated by means of telemetry in conscious, male spontancaously hypertensive rats (hereafter “SHRs”—see details about this model in Atanur et al., Genome Res. (2010), 20, 791-803). Groups of 4-6 SHRs were used for the vehicle (7.5% gelatin aquous solution) and each dose of COMPOUND tested (1, 3, 10, 30, 100, and 300 mg/kg). Effects of COMPOUND on HR and MAP were calculated for individual animals relative to the 24 h period before administering. The results obtained regarding MAP (maximal MAP decrease observed over 6 consecutive hours) are summarised in FIG. 11 (data are presented as mean±standard error of the mean). […] In contrast to MAP, HR was not affected.

The test system of data set [4] is conscious, male hypertensive Dahl salt-sensitive rats. The experiment in a line: Acute effects on MAP and HR by telemetry in Dahl salt-sensitive rats. It is filed as in vivo, rat. Conditions: Dahl-S rats, doses 0.3-300 mg/kg. The protocol:
The acute effects of COMPOUND on blood pressure, in particular on mean arterial blood pressure (hereafter “MAP”), and heart rate (hereafter “HR”) were evaluated by means of telemetry in conscious, male hypertensive Dahl salt-sensitive rats (hereafter “Dahl-S rats”-see details about this model in Rapp, Hypertension (1982), 4, 753-763). Elevated blood pressure is induced in Dahl-S rats by providing 1% sodium chloride in drinking water. Groups of 6-7 Dahl-S rats were used for the vehicle (7.5% gelatin aquous solution) and each dose of COMPOUND tested (0.3, 1, 3, 10, 30, 100, and 300 mg/kg). Effects of COMPOUND on HR and MAP were calculated for individual animals relative to the 24 h period before administering. The results obtained regarding MAP (maximal MAP decrease observed over 6 consecutive hours) are summarised in FIG. 9 (data are presented as mean±standard error of the mean). […] In contrast to MAP, HR was not affected.

In data set [5] the test system is conscious, male hypertensive deoxycorticosterone acetate salt rats. The data set can be described thus: Acute effects on MAP and HR by telemetry in DOCA-salt rats. The data set is classed as in vivo, rat. As to conditions: doses 0.3-300 mg/kg. How it is done: The acute effects of COMPOUND on blood pressure, in particular on mean arterial blood pressure (hereafter “MAP”), and heart rate (hereafter “HR”) were evaluated by means of telemetry in conscious, male hypertensive deoxycorticosterone acetate salt rats (hereafter “DOCA-salt rats”—see details about this model in Gavras et al., Circ. Res. (1975), 36, 300-309). In the DOCA-salt rats, hypertension is induced by the combination of unilateral nephrectomy, implantation of pellets of the mineralocorticoid analog DOCA, and provision of 1% sodium chloride in drinking water. Groups of 6-11 DOCA-salt rats were used for the vehicle (7.5% gelatin aquous solution) and each dose of COMPOUND tested (0.3, 1, 3, 10, 30, 100, and 300 mg/kg). Effects of COMPOUND on HR and MAP were calculated for individual animals relative to the 24 h period before administering. The results obtained regarding MAP (maximal MAP decrease observed over 6 consecutive hours) are summarised in FIG. 10 (data are presented as mean±standard error of the mean). […] In contrast to MAP, HR was not affected.

The subject of another data set is male Wistar rats. The experiment in a line: Effect on fluid retention (haematocrit) in Wistar rats. It is filed as in vivo, rat. Conditions: single oral dose 1-30 mg/kg, 24 hours after administration. The protocol: A decrease in haematocrit (Hct) or haemoglobin occurs secondary to an increase in plasma volume and can be used as a marker of fluid retention. A single oral dose of aprocitentan (1-30 mg/kg) or vehicle (gelatin) was administered by gavage to male Wistar rats. Twenty-four hours after administration, sublingual blood was sampled under isoflurane-induced anesthesia. Haematocrit was measured using a hematology analyser.

The subject of a further data set is patients with diabetes. As to conditions: cited from earlier work.
Data set [6] in a line: Hygroscopicity by gravimetric vapour sorption (GVS). The data set is classed as physicochemical. As to conditions: 25° C., mass change between 40% and 80% RH, first adsorption scan. How it is done: Measurements are performed on a multi sample instrument SPS-100n (Projekt Messtechnik, Ulm, Germany) operated in stepping mode at 25° C. The sample is allowed to equilibrate at 40% RH before starting a pre-defined humidity program (40-0-95-0-95-40% RH, steps of 5% ΔRH and with a maximal equilibration time of 24 hours per step are applied. About 20 to 30 mg of each sample is used.
The mass change between 40% relative humidity and 80% relative humidity in the first adsorption scan is considered.
Form A e.g. as obtained from Example 1 is considered to be non-hygroscopic as determined by gravimetric vapor sorption (GVS) (see FIG. 19).

A further data set deals with patients with rHT. As to conditions: 14 week phase 3 trial; cited from earlier work.
Data set [7] can be described thus: Storage at room temperature of crystalline forms (XRPD, HPLC control). The data set is classed as physicochemical. Conditions: 20-25° C. How it is done: All XRPD patterns for the solid forms described herein have been obtained as described hereafter. X-ray powder diffraction patterns were collected on a Bruker D8 Advance X-ray diffractometer equipped with a Lynxeye detector operated with CuKα-radiation in reflection mode (coupled two Theta/Theta). Typically, the X-ray tube was run at of 40 kV/40 mA. A step size of 0.02° (2θ) and a step time of 76.8 see over a scanning range of 3-500 in 2θ were applied. The divergence slit was set to fixed 0.3. Powders were slightly pressed into a silicon single crystal sample holder with depth of 0.5 mm and samples were rotated in their own plane during the measurement. Diffraction data are reported using combined Cu Kα1 and Kα2 radiation, without Kα2 stripping. The accuracy of the 2θ values as provided herein is in the range of +/−0.1-0.2° as it is generally the case for conventionally recorded X-ray powder diffraction patterns. A sample of Form A crystals of the COMPOUND (as obtained according to Example 1 above) has been stored at a temperature of 20-25° C. at 92% relative humidity for 2 months. […] The same result was obtained after storage for 8 weeks under the above coditions. […] A sample of Form B crystals of a dichloromethane solvate of the COMPOUND (as obtained according to Example 2 above) has been stored in a closed vial (20 mg of Form B crystals being placed in a closed 4 mL vial) at a temperature of 20-25° C. for about 3 weeks. […] A sample of Form K crystals of a dimethylsulfoxide solvate of the COMPOUND (as obtained according to Example 7 above) has been stored in a closed vial (20 mg of Form K crystals being placed in a closed 4 mL vial) at a temperature of 20-25° C. for about 3 weeks.

As for `NS(=O)(=O)Nc1ncnc(OCCOc2ncc(Br)cn2)c1-c1ccc(Br)cc1` [COMPOUND, {5-(4-bromo-phenyl)-6-[2-(5-bromo-pyrimidin-2-yloxy)-ethoxy]-pyrimidin-4-yl}-sulfamide], the body weight result in data set [1] (at higher doses) is given as “increased body weight at higher doses”. Moreover, the “cases of peripheral edema” value in [1] (at higher doses) is given as “four”. The “control of blood pressure” value in [1] (essential hypertension, monotherapy) is reported as “may result in efficacious control of blood pressure”. The hemoglobin concentration entry in data set [1] is “dose related decrease”. In data set [2], the “effect on DOCA-salt-induced increase in MAP” value is given as “dose-dependently attenuated the DOCA-salt-induced increase in MAP”. Moreover, the “effect on heart rate (HR)” value in [2] is recorded as “without changing HR”; in [3], “not affected”; in [4], “not affected”; in data set [5] it was “not affected”. Moreover, in the data set with male Wistar rats, the “haematocrit (Hct), marker of fluid retention” value is “did not impact on haematocrit”.
For `COc1ccccc1Oc1c(NS(=O)(=O)c2ccc(C)cn2)nc(-c2ccncc2)nc1OC` [avosentan], the “treatment effect (reduction of proteinuria)” value in the data set on patients with diabetes is given as “showed significant treatment effect”. Further, the “discontinuation of trial medications due to adverse events” value with patients with diabetes (predominantly fluid overload and congestive heart failure) was “significantly increased discontinuation”.
As to `NS(=O)(=O)Nc1ncnc(OCCOc2ncc(Br)cn2)c1-c1ccc(Br)cc1` [Form C, {5-(4-bromo-phenyl)-6-[2-(5-bromo-pyrimidin-2-yloxy)-ethoxy]-pyrimidin-4-yl}-sulfamide], the “hygroscopicity (GVS)” value in [6] is “slightly hygroscopic (increase in mass is less than 2% and equal to or greater than 0.2% mass/mass)”.
With `COc1cc(OC)nc(O[C@H](C(=O)O)C(OC)(c2ccccc2)c2ccccc2)n1` [darusentan], the “withdrawal because of adverse events as compared with placebo” value in the data set with patients with rHT was “More patients withdrew”.
On to `NS(=O)(=O)Nc1ncnc(OCCOc2ncc(Br)cn2)c1-c1ccc(Br)cc1` [Form A, {5-(4-bromo-phenyl)-6-[2-(5-bromo-pyrimidin-2-yloxy)-ethoxy]-pyrimidin-4-yl}-sulfamide], for which, in data set [6], the “hygroscopicity (GVS)” value is recorded as “non-hygroscopic”. The “solid form by X-ray powder diffraction after storage” value in data set [7] (92% relative humidity, 2 months) is given as “still consisting only in Form A crystals”. In [7] (92% relative humidity, 8 weeks), the “degradation by HPLC control (peak area %) after storage” value was “no significant degradation”.
Regarding `NS(=O)(=O)Nc1ncnc(OCCOc2ncc(Br)cn2)c1-c1ccc(Br)cc1` [Form B, {5-(4-bromo-phenyl)-6-[2-(5-bromo-pyrimidin-2-yloxy)-ethoxy]-pyrimidin-4-yl}-sulfamide], the “solid form by X-ray powder diffraction after storage” value in [7] (closed vial, about 3 weeks) was “transformed into Form A crystals”.
